According to US20260132128A1, “COMPOUND FOR RECOVERING P53 MUTATION FUNCTION AND USE THEREOF” (SHENZHEN ZHONGGE BIOLOGICAL TECHNOLOGY CO., LTD., priority 2022, published 2026):
Marks after values point to notes of the source that are not given here.

Columns and labels:
p53 Y220C [1] = molecular target: T1, p53 Y220C (Homo sapiens, UniProt P04637, Y220C); experiment: DNA binding test (HTRF): binding of P53Y220C protein to DNA; type: biochemical; settings: multiple ratio of EC50 of the compound to the reference compound, DNA binding test
T1 construct: a truncated mutant containing only amino acids 94-312 of p53; made in house; host or cells: E. coli
Method: (§1) In order to detect the ability of the aforementioned compounds to increase the binding of P53Y220C protein to DNA, the binding activity of p53 Y220C was measured by homogeneous time-resolved fluorescence (HTRF). Recombinant His-tagged p53 Y220C for HTRF measurement was expressed in bacteria E. coli. The recombinant protein was a truncated mutant containing only amino acids 94-312 of p53, and its sequence was […] […] VEGNLR […] TFRh[…] […]. The sense strand of the DNA double strand was 5′-[…]-3′, with a biotin tag at the 5′ end for activity assay, and the antisense strand was 5′-[…]-3′ 40 mL of assay buffer (20 mM Tris HCL, pH 7.5, 50 mM NaCl, 2 mM MgCl2, 0.02% Tween 20, 0.01% BSA, 1 mM DTT) was prepared. 10 mM compound was prepared and subjected to 3-fold dilution to obtain 10 dose gradient dilutions of the compound. 20 nL of the compound was added to a 384-well assay plate (PerkinElmer 6007299) using an Echo 655 Liquid Handler. P53Y220C protein was dissolved in assay buffer to reach a final concentration of 150 nM, and 5 μL thereof was added to each well, and incubated at room temperature for 5 min. DNA was dissolved in assay buffer to reach a final concentration of 150 nM, and 5 μL thereof was added to each well, and incubated at room temperature for 15 min. Anti 6HIS-XL665 (Cisbio 61HISXLB) was dissolved in assay buffer to reach a final concentration of 20 nM, and 5 μL thereof was added to each well. Streptavidin-Eu cryptate (Cisbio 610SAKLA) was dissolved in assay buffer to reach a final concentration of 0.625 nM, and 5 μL thereof was added to each well, and incubated at 27° C. for 1 hour. The plate was then read for signal values on an Envision (PerkinElmer 2105-0020) plate reader at 665 nm and 615 nm, respectively. […] Activation rate={(A-C)/(C)}*100%, A=(signal value at 665 nm/signal value at 615 nm); C=average signal of negative control (wherein, negative control referred to 0.1% DMSO).

p53 Y220C [2] = molecular target: T2, p53 Y220C (Homo sapiens, UniProt P04637, P309S/R273H/Y220C); experiment: as above; type: biochemical; settings: HTRF, activation of p53 Y220C (aa 94-312) binding to biotin DNA
T2 construct: a truncated mutant containing only amino acids 94-312 of p53; made in house; host or cells: E. coli
Method: as §1

NUGC-3 cells = experiment: NUGC-3 cell proliferation assay (CTG); type: cell-based, human; settings: for GI50: 6 days, CTG; for Compound GI50 (nM)/Reference compound GI50 (nM): multiple ratio of GI50 of the compound to the reference compound
Method: In order to detect the inhibitory effect of the aforementioned compounds on the proliferation ability of NUGC-3 cells, 250 NUGC-3 cells (Nanjing Cobioer Biosciences Co., Ltd., CBP60492) were seeded into a 384-well plate (Corning 3765), 35 μL per well, and incubated overnight in a constant temperature incubator at 37° C. and 5% CO2. Then, 40 nL of the compound was added to the 384-well plate using an Echo 655 Liquid Handler, with a maximum final concentration of 10 μM, 1:3 serial dilutions, and a total of 10 doses. The culture was performed at 37° C. and 5% CO2 for 6 days. The plate was taken out from the incubator and equilibrated at room temperature for 10 minutes. 20 μL of CTG (Promage G7572) was added to each well of the plate according to the platemap. The plate was centrifuged at 1000 rpm for 1 min. The lysis of cells was induced by mixing on a shaker for 2 min. The plate was centrifuged at 1000 rpm for 1 min. Incubation was performed at room temperature for 10 min to stabilize luminescence signals. Luminescence values were recorded by Envision (PerkinElmer 2105-0020). GraphPad 9.0 was used to fit the inhibition rate and compound concentration into a nonlinear regression curve (dose response-variable slope) to calculate GI50, inhibition rate={1−(A−B)/(C−B)}*100%, A=signal value of compound; B=average signal of blank control; C=average signal of negative control (wherein negative control was 0.1% DMSO).

EC50 (p53 Y220C [2]) [nM]	SMILES	Compound EC50 (nM)/Reference compound EC50 (nM) (p53 Y220C [1])	GI50 (NUGC-3 cells; Homo sapiens, NUGC-3, 144 h) [nM]	Compound GI50 (nM)/Reference compound GI50 (nM) (NUGC-3 cells)	GI50 (NUGC-3 cells) [nM]
100 to 500	CNC(=O)c1ccc(NCC#Cc2nc3c(N[C@@H]4CCN(CCOC)C[C@@H]4F)cccn3c2CC(F)(F)F)c(OC)c1 [Compound 21]	C (C: EC50 of the compound≥3*EC50 of the reference compound)	1000 to 5000	C (C: GI50 of the compound ≥ 3 * GI50 of the reference compound)	
100 to 500	COc1cc(S(N)(=O)=O)ccc1NCC#Cc1nc2c(NC3CCN(C)CC3)cccn2c1CC(F)(F)F [Compound 12]	B (B: EC50 of the reference compound<EC50 of the compound≤3.0*EC50 of the reference compound)	≥ 5000	C (C: GI50 of the compound ≥ 3 * GI50 of the reference compound)	
100 to 500	COc1cc(-c2nccs2)ccc1NCC#Cc1nc2c(NC3CCN(C)CC3)cccn2c1CC(F)(F)F [Compound 16]	C (C: EC50 of the compound≥3*EC50 of the reference compound)	≥ 5000	C (C: GI50 of the compound ≥ 3 * GI50 of the reference compound)	
100 to 500	CN1CCC(Nc2cccn3c(CC(F)(F)F)c(-c4nnc(CNC(=O)c5cnn(C6CCOC6)c5)s4)nc23)CC1 (stereo not shown) [Compound 22]	B (B: EC50 of the reference compound<EC50 of the compound≤3.0*EC50 of the reference compound)	≥ 5000	C (C: GI50 of the compound ≥ 3 * GI50 of the reference compound)	
≥ 1000	CNC(=O)c1ccc(NCC#Cc2nc3c(NC4CCN(C)CC4)cncn3c2CC(F)(F)F)c(OC)c1 [Compound 2]	C (C: EC50 of the compound≥3*EC50 of the reference compound)		C (C: GI50 of the compound ≥ 3 * GI50 of the reference compound)	
< 100	CCNC(=O)c1ccc(NCC#Cc2nc3c(N[C@@H]4CC[C@@H](N5CC6(COC6)C5)C[C@@H]4F)cccn3c2CC(F)(F)F)c(OC)c1 [Compound 50]	A (A: EC50 of the compound≤EC50 of the reference compound)		C (C: GI50 of the compound ≥ 3 * GI50 of the reference compound)	
100 to 500	CNC(=O)c1ccc(NCC#Cc2nc3c(NC4CCN(C)CC4)cccn3c2CC(F)(F)F)c(F)c1 [Compound 13]	B (B: EC50 of the reference compound<EC50 of the compound≤3.0*EC50 of the reference compound)	1000 to 5000	C (C: GI50 of the compound ≥ 3 * GI50 of the reference compound)	
100 to 500	CNC(=O)c1ccc(NCc2nnc(-c3nc4c(NC5CCN(C)CC5)cccn4c3CC(F)(F)F)s2)c(OC)c1 [Compound 18]	C (C: EC50 of the compound≥3*EC50 of the reference compound)	1000 to 5000	C (C: GI50 of the compound ≥ 3 * GI50 of the reference compound)	
100 to 500	CNC(=O)c1ccc(NCC#Cc2nc3c(NC4CCC(C)(O)CC4)cccn3c2CC(F)(F)F)c(OC)c1 (stereo not shown) [Compound 25]	C (C: EC50 of the compound≥3*EC50 of the reference compound)	≥ 5000	C (C: GI50 of the compound ≥ 3 * GI50 of the reference compound)	
100 to 500	CNC(=O)c1ccc(NCC#Cc2nc3c(NC4CCC(N5CC6(COC6)C5)CC4F)cccn3c2CC(F)(F)F)c(OC)c1 (single isomer, unassigned) [Compound 35-6g]	C (C: EC50 of the compound≥3*EC50 of the reference compound)		C (C: GI50 of the compound ≥ 3 * GI50 of the reference compound)	≥ 5000
100 to 500	CN1CCC(Nc2cccn3c(CC(F)(F)F)c(-c4nnc(CNC(=O)c5ccn(C(C)(C)C)c5)s4)nc23)CC1 [Compound 19]	B (B: EC50 of the reference compound<EC50 of the compound≤3.0*EC50 of the reference compound)	≥ 5000	C (C: GI50 of the compound ≥ 3 * GI50 of the reference compound)	
< 100	CNC(=O)c1ccc(NCC#Cc2nc3c(NC4CC[C@@H](N5CCC5)C[C@@H]4F)cccn3c2CC(F)(F)F)c(OC)c1 (stereo partly shown) [Compound 40]	B (B: EC50 of the reference compound<EC50 of the compound≤3.0*EC50 of the reference compound)	< 1000	B (B: GI50 of the reference compound < GI50 of the compound ≤ 3.0 * GI50 of the reference compound)	
< 100	COc1cc(C(=O)N2CCC2)ccc1NCC#Cc1nc2c(N[C@@H]3CC[C@@H](N4CC5(COC5)C4)C[C@@H]3F)cccn2c1CC(F)(F)F [Compound 51]	A (A: EC50 of the compound≤EC50 of the reference compound)		C (C: GI50 of the compound ≥ 3 * GI50 of the reference compound)	
500 to 1000	Cc1cc[nH]c1C(=O)NCC#Cc1nc2c(NC3CCN(C)CC3)cccn2c1CC(F)(F)F [Compound 28]	C (C: EC50 of the compound≥3*EC50 of the reference compound)		C (C: GI50 of the compound ≥ 3 * GI50 of the reference compound)	
< 100	CNC(=O)c1ccc(NCC#Cc2nc3c(NC4CCC(N5CC6(COC6)C5)CC4F)cccn3c2CC(F)(F)F)c(OC)c1 (single isomer, unassigned) [Compound 35-6h]	B (B: EC50 of the reference compound<EC50 of the compound≤3.0*EC50 of the reference compound)		C (C: GI50 of the compound ≥ 3 * GI50 of the reference compound)	1000 to 5000
< 100	CNC(=O)c1ccc(NCC#Cc2nc3c(NC4CCC(N5CC6(COC6)C5)CC4F)cccn3c2CC(F)(F)F)c(OC)c1 (single isomer, unassigned) [Compound 35-6j]	C (C: EC50 of the compound≥3*EC50 of the reference compound)		C (C: GI50 of the compound ≥ 3 * GI50 of the reference compound)	< 1000
100 to 500	COc1cc(C(=O)NC2CCOCC2)ccc1NCC#Cc1nc2c(NC3CCN(C)CC3)cccn2c1CC(F)(F)F [Compound 29]	C (C: EC50 of the compound≥3*EC50 of the reference compound)	1000 to 5000	C (C: GI50 of the compound ≥ 3 * GI50 of the reference compound)	
500 to 1000	CN1CCC(Nc2cccn3c(CC(F)(F)F)c(-c4noc(CNC(=O)c5ccn(C(C)(C)C)c5)n4)nc23)CC1 [Compound 17]	C (C: EC50 of the compound≥3*EC50 of the reference compound)		C (C: GI50 of the compound ≥ 3 * GI50 of the reference compound)	
100 to 500	CNC(=O)c1ccc(NCC#Cc2nc3c(NC4CCC(N(C)[C@@H]5CCOC5)CC4)cccn3c2CC(F)(F)F)c(OC)c1 (stereo partly shown) [Compound 33]	C (C: EC50 of the compound≥3*EC50 of the reference compound)		C (C: GI50 of the compound ≥ 3 * GI50 of the reference compound)	
